Measurements reported in the supplement of paper PMC10307832.

Legend:
Assay in all cases: relative viability (nuclei count vs DMSO), 5 days (fraction); higher = more cells survive
EPLC-272H = system: EPLC-272H
Method in brief: (§1)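 Relative viability equals treated-well nuclei counts divided by vehicle-well nuclei counts. Counts came from 4× images of lung cancer cell lines grown in 1536-well plates for 5 days after pin-tool dosing on the day after seeding. Dosing used one drug alone or a fixed anchor-drug dose plus five library-drug doses (not always all listed) in √10 steps, and values are medians of duplicate plates.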

NCI-H358 = system: NCI-H358
Method in brief: as §1

EKVX = system: EKVX
Method in brief: as §1

NCI-H460 = system: NCI-H460
Method in brief: as §1

RERF-LC-KJ = system: RERF-LC-KJ
Method in brief: as §1

EMC-BAC-2 = system: EMC-BAC-2
Method in brief: as §1

LK-2 = system: LK-2
Method in brief: as §1

LU99A = system: LU99A
Method in brief: as §1

NCI-H1650 = system: NCI-H1650
Method in brief: as §1

NCI-H522 = system: NCI-H522
Method in brief: as §1

SW 900 = system: SW 900
Method in brief: as §1

NCI-H1755 = system: NCI-H1755
Method in brief: as §1

HARA = system: HARA
Method in brief: as §1

ChaGo-K-1 = system: ChaGo-K-1
Method in brief: as §1

HCC-44 = system: HCC-44
Method in brief: as §1

NCI-H596 = system: NCI-H596
Method in brief: as §1

NCI-H647 = system: NCI-H647
Method in brief: as §1

NCI-H1792 = system: NCI-H1792
Method in brief: as §1

NCI-H2405 = system: NCI-H2405
Method in brief: as §1

COR-L 105 = system: COR-L 105
Method in brief: as §1

NCI-H1993 = system: NCI-H1993
Method in brief: as §1

NCI-H1734 = system: NCI-H1734
Method in brief: as §1

A-427 = system: A-427
Method in brief: as §1

Cc1csc(=NC2CCCCC2)n1/N=C/c1ccc(O)c(O)c1O [MIM1] + N=C(N)NC(=N)NCCc1ccccc1 [Phenformin] (partner 250 µM)
relative viability (EPLC-272H; first compound 0.2 µM): 0.324 | relative viability (EPLC-272H; first compound 0.6325 µM): 0.273 | relative viability (EPLC-272H; first compound 2 µM): 0.279 | relative viability (EPLC-272H; first compound 6.325 µM): 0.184 | relative viability (EPLC-272H; first compound 20 µM): 0.104 | relative viability (NCI-H358; first compound 0.2 µM): 0.373 | relative viability (NCI-H358; first compound 0.6325 µM): 0.296 | relative viability (NCI-H358; first compound 2 µM): 0.299 | relative viability (NCI-H358; first compound 6.325 µM): 0.135 | relative viability (NCI-H358; first compound 20 µM): 0.118 | relative viability (EKVX; first compound 0.2 µM): 0.253 | relative viability (EKVX; first compound 0.6325 µM): 0.144 | relative viability (EKVX; first compound 2 µM): 0.213 | relative viability (EKVX; first compound 6.325 µM): 0.209 | relative viability (EKVX; first compound 20 µM): 0.198 | relative viability (NCI-H460; first compound 0.2 µM): 0.497 | relative viability (NCI-H460; first compound 0.6325 µM): 0.531 | relative viability (NCI-H460; first compound 2 µM): 0.387 | relative viability (NCI-H460; first compound 6.325 µM): 0.172 | relative viability (NCI-H460; first compound 20 µM): 0.0325 | relative viability (RERF-LC-KJ; first compound 0.2 µM): 0.447 | relative viability (RERF-LC-KJ; first compound 0.6325 µM): 0.414 | relative viability (RERF-LC-KJ; first compound 2 µM): 0.348 | relative viability (RERF-LC-KJ; first compound 6.325 µM): 0.353 | relative viability (RERF-LC-KJ; first compound 20 µM): 0.303 | relative viability (EMC-BAC-2; first compound 0.2 µM): 0.547 | relative viability (EMC-BAC-2; first compound 0.6325 µM): 0.455 | relative viability (EMC-BAC-2; first compound 2 µM): 0.515 | relative viability (EMC-BAC-2; first compound 6.325 µM): 0.48 | relative viability (EMC-BAC-2; first compound 20 µM): 0.208 | relative viability (LK-2; first compound 0.2 µM): 0.602 | relative viability (LK-2; first compound 2 µM): 0.49 | relative viability (LK-2; first compound 6.325 µM): 0.147 | relative viability (LK-2; first compound 20 µM): 0.148 | relative viability (LU99A; first compound 0.2 µM): 0.976 | relative viability (LU99A; first compound 0.6325 µM): 0.753 | relative viability (LU99A; first compound 2 µM): 0.819 | relative viability (LU99A; first compound 6.325 µM): 0.702 | relative viability (LU99A; first compound 20 µM): 0.325 | relative viability (NCI-H1650; first compound 0.2 µM): 0.461 | relative viability (NCI-H1650; first compound 0.6325 µM): 0.406 | relative viability (NCI-H1650; first compound 2 µM): 0.412 | relative viability (NCI-H1650; first compound 6.325 µM): 0.155 | relative viability (NCI-H1650; first compound 20 µM): 0.164 | relative viability (NCI-H522; first compound 0.2 µM): 0.697 | relative viability (NCI-H522; first compound 0.6325 µM): 0.665 | relative viability (NCI-H522; first compound 2 µM): 0.672 | relative viability (NCI-H522; first compound 6.325 µM): 0.52 | relative viability (NCI-H522; first compound 20 µM): 0.571 | relative viability (SW 900; first compound 0.2 µM): 0.683 | relative viability (SW 900; first compound 0.6325 µM): 0.712 | relative viability (SW 900; first compound 2 µM): 0.778 | relative viability (SW 900; first compound 6.325 µM): 0.495 | relative viability (SW 900; first compound 20 µM): 0.176 | relative viability (NCI-H1755; first compound 0.2 µM): 0.596 | relative viability (NCI-H1755; first compound 0.6325 µM): 0.597 | relative viability (NCI-H1755; first compound 2 µM): 0.621 | relative viability (NCI-H1755; first compound 6.325 µM): 0.506 | relative viability (NCI-H1755; first compound 20 µM): 0.226 | relative viability (HARA; first compound 0.2 µM): 0.455 | relative viability (HARA; first compound 2 µM): 0.49 | relative viability (HARA; first compound 6.325 µM): 0.16 | relative viability (HARA; first compound 20 µM): 0.0907 | relative viability (ChaGo-K-1; first compound 0.2 µM): 0.521 | relative viability (ChaGo-K-1; first compound 0.6325 µM): 0.49 | relative viability (ChaGo-K-1; first compound 2 µM): 0.45 | relative viability (ChaGo-K-1; first compound 6.325 µM): 0.227 | relative viability (ChaGo-K-1; first compound 20 µM): 0.171 | relative viability (HCC-44; first compound 0.2 µM): 0.239 | relative viability (HCC-44; first compound 0.6325 µM): 0.138 | relative viability (HCC-44; first compound 2 µM): 0.111 | relative viability (HCC-44; first compound 6.325 µM): 0.154 | relative viability (HCC-44; first compound 20 µM): 0.13 | relative viability (NCI-H596; first compound 0.2 µM): 0.705 | relative viability (NCI-H596; first compound 0.6325 µM): 0.829 | relative viability (NCI-H596; first compound 2 µM): 0.733 | relative viability (NCI-H596; first compound 6.325 µM): 0.676 | relative viability (NCI-H596; first compound 20 µM): 0.773 | relative viability (NCI-H647; first compound 0.2 µM): 0.602 | relative viability (NCI-H647; first compound 0.6325 µM): 0.431 | relative viability (NCI-H647; first compound 6.325 µM): 0.4 | relative viability (NCI-H647; first compound 20 µM): 0.0969 | relative viability (NCI-H1792; first compound 0.2 µM): 0.446 | relative viability (NCI-H1792; first compound 0.6325 µM): 0.401 | relative viability (NCI-H1792; first compound 2 µM): 0.322 | relative viability (NCI-H1792; first compound 6.325 µM): 0.353 | relative viability (NCI-H1792; first compound 20 µM): 0.43 | relative viability (NCI-H2405; first compound 0.2 µM): 0.402 | relative viability (NCI-H2405; first compound 0.6325 µM): 0.375 | relative viability (NCI-H2405; first compound 2 µM): 0.385 | relative viability (NCI-H2405; first compound 6.325 µM): 0.386 | relative viability (NCI-H2405; first compound 20 µM): 0.371 | relative viability (COR-L 105; first compound 0.2 µM): 0.513 | relative viability (COR-L 105; first compound 0.6325 µM): 0.461 | relative viability (COR-L 105; first compound 2 µM): 0.404 | relative viability (COR-L 105; first compound 6.325 µM): 0.316 | relative viability (COR-L 105; first compound 20 µM): 0.307 | relative viability (NCI-H1993; first compound 0.2 µM): 0.481 | relative viability (NCI-H1993; first compound 0.6325 µM): 0.545 | relative viability (NCI-H1993; first compound 2 µM): 0.474 | relative viability (NCI-H1993; first compound 6.325 µM): 0.443 | relative viability (NCI-H1993; first compound 20 µM): 0.463 | relative viability (NCI-H1734; first compound 0.2 µM): 0.395 | relative viability (NCI-H1734; first compound 0.6325 µM): 0.375 | relative viability (NCI-H1734; first compound 2 µM): 0.443 | relative viability (NCI-H1734; first compound 6.325 µM): 0.35 | relative viability (NCI-H1734; first compound 20 µM): 0.179 | relative viability (A-427; first compound 0.2 µM): 0.35 | relative viability (A-427; first compound 2 µM): 0.361 | relative viability (A-427; first compound 6.325 µM): 0.244 | relative viability (A-427; first compound 20 µM): 0.137
